{"source": "patent US9446036B2", "about": "“Compositions of a polyorthoester and an aprotic solvent” (Heron Therapeutics, Inc., priority 2013, dated 2016)", "origin": "cited, not measured here"}
{"settings": "room temperature (20-25° C.)"}
{"smiles": "COC(C)=O", "note": "[methyl acetate]", "Water Miscibility": "water miscible"}
{"smiles": "CCOC(=O)C(C)O", "note": "(centres unmarked) [ethyl lactate]", "Water Miscibility": "water miscible"}
{"smiles": "O=C1CCCN1C1CCCCC1", "note": "[N-cyclohexyl-2-pyrrolidone]", "Water Miscibility": "poorly miscible"}
{"smiles": "CC1COC(=O)O1", "note": "(centres unmarked) [4-methyl-1,3-diololan-2-one]", "Water Miscibility": "water miscible"}
{"smiles": "COC(=O)C(C)O", "note": "(centres unmarked) [methyl lactate]", "Water Miscibility": "water miscible"}
{"smiles": "CCCCCCCC/C=C\\CCCCCCCC(=O)OCC", "note": "[ethyl oleate]", "Water Miscibility": "poorly miscible"}
{"smiles": "CCOC(C)=O", "note": "[ethyl acetate]", "Water Miscibility": "partially miscible"}
{"smiles": "C[S+](C)[O-]", "note": "[dimethyl sulfoxide]", "Water Miscibility": "water miscible"}
{"smiles": "O=C1CCCCCO1", "note": "[ester-caprolactone]", "Water Miscibility": "water miscible"}
{"smiles": "CCCCCCCCCCCCCC(=O)OC(C)C", "note": "[isopropyl myristate]", "Water Miscibility": "poorly miscible"}
{"smiles": "O=C(OCc1ccccc1)c1ccccc1", "note": "[benzyl benzoate]", "Water Miscibility": "poorly miscible"}
{"smiles": "CN1CCCC1=O", "note": "[N-methyl-2-pyrrolidone (NMP), N-methyl-2-pyrrolidone]", "Water Miscibility": "water miscible"}
{"smiles": "CCN1CCCC1=O", "note": "[n-ethyl-2-pyrrolidone]", "Water Miscibility": "water miscible"}
{"smiles": "C1CCOC1", "note": "[tetrahydrofuran]", "Water Miscibility": "water miscible"}
